# Patent US20190388421A1, “NOVEL COMPOUNDS AND PHARMACEUTICAL COMPOSITIONS THEREOF FOR THE TREATMENT OF FIBROSIS” (Galapagos NV, priority 2016, published 2019)
# pEC50, pIC50: −log10 of the molar value.
# Experiments:
# [1] = target: T1, human GPCR sphingosine 1-phosphate receptor 2 (S1PR2) (Homo sapiens, UniProt O95136); assay: S1P2 antagonist assay (Ca2+ flux, S1P at EC80); assay type: cell-based; conditions: CHO-S1PR2 cells, highest concentration 20 μM
# T1 construct: host or cells: CHO
# Procedure: Triggering of S1PR2 by administration of Sphingosine-1-phosphate leads to a transient increase in intracellular Ca^2+. The Ca^2+ flux assays are measuring the release of Ca^2+ intracellularly by use of a Ca^2+ sensitive fluorescent dye. The assay is firstly run in agonist mode (incubation of compounds alone) to ensure that the Ca^2+ released measured is not caused by the test compound having an agonistic effect. Then the assay is continued in antagonist mode (Sphingosine-1-Phosphate added to incubated medium containing the test compounds).
# CHO cells stably overexpressing human GPCR sphingosine 1-phosphate receptor 2 (CHO—S1PR2 Perkin Elmer; ES-594-A) are seeded from a frozen stock in 384 wells sterile microplates (50 μL; 7,500 cells/well) and are incubated overnight at 37° C. and 5% CO2. The next day cells are washed twice with starvation medium (F-12 Ham's medium containing 0.1% BSA (Fatty acid free: FAF)) and left in […] starvation medium for 1 h at 37° C., 5% CO2. After this starvation cells are incubated with […] buffer containing the Ca^2+-sensitive fluorescent dye (0.5 mg Fluo8+125 mg Allura Red in 100 ml of 1% DMSO, in HBSS+20 mM Hepes+5 mM probenecid). The cells are incubated for an additional 1 hour after which 10 μL compounds, diluted in HBSS buffer with 20 mM Hepes and 0.1% BSA (FAF), are added to the cells and intracellular Ca^2+ changes are immediately measured by reading fluorescence during 3 min (FDSS/μCELL reader). The ratio of the maximal fluorescence over the background fluorescence before compound injection is used to determine compound response.
# (§1) After readout of the agonist activity, the plates are incubated for 15 min at 37° C. and 5% CO2. Then, cells are stimulated with 10 μL Sphingosine-1-Phosphate (S1P) (Avanti Polar lipids-860492P) at its EC80 concentration. Intracellular Ca^2+ changes are immediately measured by reading fluorescence during 3 min (FDSS/μCELL reader). The ratio of the maximal fluorescence over the background fluorescence before compound injection is used to determine compound response.
# (§2) For EC50 determination, a 10 point dilution series of compounds starting from 23.3 μM and 20 μM highest final concentration for agonist and antagonist respectively, ⅓ dilution was performed.
# (§3) The obtained ratio's for agonist and antagonist readout were normalized versus vehicle and EC100 of S1P as controls for agonist mode and versus vehicle and EC80 of S1P for antagonist mode. From these normalized data EC50 of the compounds are derived.
# HFL-1 cells [2] = assay: IL8 assay in the presence of Human Serum Albumin; assay type: cell-based; conditions: HFL1, S1P (5 μM) induced IL-8, HFL-1 cells, with 2% HSA, read-out: HSA IL8 EC50
# Procedure: (§4) S1P is able to induce cytokines such as IL-8 in a process that is S1PR2 dependent (O'Sullivan et al, 2014; Bruennert et al, 2015). This assay is designed to test inhibitory activity of compounds on S1P induced IL-8 on HFL-1 cells, a human fetal lung fibroblast cell line.
# To evaluate the influence of plasma protein binding of Sip as well as compound, the S1P induced IL-8 levels were evaluated in presence of 2% Human Serum Albumin (HSA, equivalent to 40% human serum). By adding 2% HSA, which affects both the activity of the compounds as well as the S1P potency, the physiological condition are reproduced and the shift in potency expected under in vivo serum conditions can be measured.
# (§5) Human Fetal Lung cells (HFL-1) are seeded in 96 well plates in growth medium (F12K+10% heat inactivated FBS+1% Pen/strep). After overnight incubation at 37° C., 5% CO2 cells are refreshed with starvation medium with HSA (F12K+1% FBS+1% Pen/strep+1.95% HSA). On day three, compounds are added (10 point serial dilution, 30 μM highest concentration, 1/3 dilution, 0.3% DMSO final) and plates are incubated for 1 h at 37° C., 5% CO2. Subsequently S1P at 5 μM final concentration is added and plates are incubated for 16 to 24 h at 37° C., 5% CO2 after which the supernatant was collected. IL-8 levels in the supernatant are determined with the IL-8 ELISA of R&D systems.
# HFL-1 cells [3] = assay: IL8 assay (S1P induced IL-8 production); assay type: cell-based; conditions: Homo sapiens, HFL1; S1P (1 μM) induced IL-8, HFL-1 cells, without HSA
# Procedure: as §4
# as §5, with “medium without” for “medium with”, “FBS+1% Pen/strep).” for “FBS+1% Pen/strep+1.95% HSA).”, “concentration, ⅓” for “concentration, 1/3”, “for one hour” for “for 1 h”, “at 1” for “at 5”, “24 hours” for “24 h”
# [4] = target: T2, human GPCR sphingosine 1-phosphate receptor 1 (S1PR1) (Homo sapiens, UniProt P21453); assay: S1PR1 selectivity assay (Ca2+ flux, antagonist); assay type: cell-based; conditions: S1P1 antagonist EC50, CHO cells overexpressing human S1PR1 and Gq protein
# T2 construct: host or cells: CHO
# T2 sequence (P21453 whole entry): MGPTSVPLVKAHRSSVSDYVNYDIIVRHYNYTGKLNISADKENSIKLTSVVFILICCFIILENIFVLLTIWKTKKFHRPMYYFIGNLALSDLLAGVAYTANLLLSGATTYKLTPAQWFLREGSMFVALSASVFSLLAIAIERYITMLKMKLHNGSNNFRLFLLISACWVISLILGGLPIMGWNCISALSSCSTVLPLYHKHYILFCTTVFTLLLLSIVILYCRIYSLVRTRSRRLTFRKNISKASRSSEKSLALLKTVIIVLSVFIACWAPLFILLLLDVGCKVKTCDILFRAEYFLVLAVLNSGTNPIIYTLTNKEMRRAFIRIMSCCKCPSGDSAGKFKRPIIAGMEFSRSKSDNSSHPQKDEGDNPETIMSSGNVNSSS
# Procedure: as §1, §2, §3
# (§6) To evaluate the selectivity of the compounds for S1PR2 over S1PR1 and S1PR5, a similar assay set up as described above for the S1PR2 calcium flux assays was performed: CHO cells stably overexpressing human GPCR sphingosine 1-phosphate receptor 1 and Gq protein (Euroscreen, FAST-0197A) or overexpressing human GPCR sphingosine 1-phosphate receptor 5 and Gq protein were used (Perkin Elmer, ES-593-A). In case of the S1PR5 assay triggering was done with an S1PR5 specific agonist instead of with S1P (Hobson et al., 2015).
# S1PR2 = target: T3, S1PR2 (Homo sapiens, UniProt O95136); assay: GTP-γS binding assay ([35S]GTPγS, S1P at EC80, S1PR2 membranes); assay type: biochemical; conditions: membranes from stable cell line over expressing S1PR2, read-out: S1PR2 EC
# T3 construct: expressed in transfected cells
# T3 sequence (O95136 whole entry): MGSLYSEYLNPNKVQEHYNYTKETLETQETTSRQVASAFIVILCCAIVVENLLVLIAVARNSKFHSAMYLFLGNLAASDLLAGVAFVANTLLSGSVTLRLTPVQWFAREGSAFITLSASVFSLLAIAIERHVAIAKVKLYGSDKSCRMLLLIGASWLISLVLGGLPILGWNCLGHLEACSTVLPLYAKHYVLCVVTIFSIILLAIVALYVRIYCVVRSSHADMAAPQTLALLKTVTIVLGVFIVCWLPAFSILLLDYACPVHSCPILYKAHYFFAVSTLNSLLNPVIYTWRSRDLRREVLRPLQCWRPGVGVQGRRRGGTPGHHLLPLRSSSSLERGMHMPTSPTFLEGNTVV
# Procedure: The following assay can be used for determination of S1PR2 activation. The [^35S] GTPγS assay measures the level of G protein activation following agonist occupation of a GPCR, by determining the binding of the non-hydrolysable analog [^35S] GTPγS to Gα subunits.
# The assay is performed in a 96 well plate where the following reagents are added. First 50 μL compound is added into the assay plate, followed by addition of 20 μL S1P at EC80 concentration (concentration which gives 80% of the activity of S1PR2). Then, 30 μL of a mixture consisting of membranes-GTPγS-SpA beads is added [mixture consists of 2.5 μg/well membranes derived from stable cell line over expressing S1PR2 (membranes are pre-incubated with 1 μM GDP for 15 min at 4° C.), 0.1 nM [35S]GTPγS (Perkin Elmer, NEG030) and 0.5 mg/well PVT-WGA SpA beads (Perkin Elmer, RPNQ0001)]. All components are diluted in assay buffer containing 20 mM Tris pH 7.5; 10 mM MgCl2; 100 mM NaCl; 0.1% BSA FAF; 50 ug/ml saponin. After an incubation for 4 h at room temperature, plates are centrifuged at 2000 rpm during 20 min. Plates are read on a Topcount reader (Perkin Elmer) immediately after centrifugation (readout time, 1 min/well).
# [5] = target: T4, human GPCR sphingosine 1-phosphate receptor 5 (S1PR5) (Homo sapiens, UniProt Q9H228); assay: S1PR5 selectivity assay (Ca2+ flux, antagonist, S1PR5 specific agonist trigger); assay type: cell-based; conditions: S1P5 antagonist EC50, CHO cells overexpressing human S1PR5 and Gq protein
# T4 construct: host or cells: CHO
# T4 sequence (Q9H228 whole entry): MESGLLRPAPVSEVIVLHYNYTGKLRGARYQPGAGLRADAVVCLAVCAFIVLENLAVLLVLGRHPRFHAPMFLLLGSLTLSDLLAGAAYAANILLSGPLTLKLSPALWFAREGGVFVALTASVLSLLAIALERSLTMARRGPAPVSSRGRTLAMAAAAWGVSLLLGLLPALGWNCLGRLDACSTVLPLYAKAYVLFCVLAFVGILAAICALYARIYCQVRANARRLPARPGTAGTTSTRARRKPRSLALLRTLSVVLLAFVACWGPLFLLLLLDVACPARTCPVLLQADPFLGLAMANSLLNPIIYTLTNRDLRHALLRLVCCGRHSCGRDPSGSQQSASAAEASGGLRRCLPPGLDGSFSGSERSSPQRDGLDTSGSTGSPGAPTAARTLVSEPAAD
# Procedure: as §1, §2, §3, §6
# T1 sequence (O95136 whole entry): as the sequence (O95136 whole entry) above
SMILES,pEC50 [1],pIC50 (HFL-1 cells [2]),pEC50 (HFL-1 cells [3]),pEC50 [4],pEC50 (S1PR2),pEC50 [5]
"CCOc1nc(Cl)cc(NC(=O)NCc2cc(C)c(-c3cn(C)nc3C(F)(F)F)nn2)c1C [Compound 20, 1-(6-chloro-2-ethoxy-3-methyl-4-pyridyl)-3-[[5-methyl-6-[1-methyl-3-(trifluoromethyl)pyrazol-4-yl]pyridazin-3-yl]methyl]urea]",8.06,,,5.41,7.82,5.68
"Cn1cc(-c2nnc(CNC(=O)Nc3cc(Cl)nc(OCC(F)F)c3)cc2C2CC2)c(C(F)(F)F)n1 [Compound 61, 1-[2-chloro-6-(2,2-difluoroethoxy)-4-pyridyl]-3-[[5-cyclopropyl-6-[1-methyl-3-(trifluoromethyl)pyrazol-4-yl]pyridazin-3-yl]methyl]urea]",7.85,,,6.04,6.71,5.39
"Cc1cc(CNC(=O)Nc2ccnc(Cl)c2)nnc1-c1cn(C)nc1C(F)(F)F [Compound 44, 1-(2-chloro-4-pyridyl)-3-[[5-methyl-6-[1-methyl-3-(trifluoromethyl)pyrazol-4-yl]pyridazin-3-yl]methyl]urea]",5.35,,,≤ 4.70,5.38,≤ 4.70
"CCOc1nc(C)cc(NC(=O)NCc2cc(C)c(-c3cn(C)nc3C(F)(F)F)nn2)c1C#N [Compound 77, 1-(3-cyano-2-ethoxy-6-methyl-4-pyridyl)-3-[[5-methyl-6-[1-methyl-3-(trifluoromethyl)pyrazol-4-yl]pyridazin-3-yl]methyl]urea]",,4.52,5.56,,4.70,
"Cc1cc(CNC(=O)Nc2cnc(Cl)c(OCC(F)F)c2)nnc1-c1cn(C)nc1C(F)(F)F [Compound 23, 1-[6-chloro-5-(2,2-difluoroethoxy)-3-pyridyl]-3-[[5-methyl-6-[1-methyl-3-(trifluoromethyl)pyrazol-4-yl]pyridazin-3-yl]methyl]urea]",7.97,,,≤ 4.70,7.13,≤ 4.70

# Other lines, results leading:
pEC50 [1],pIC50 (HFL-1 cells [2]),pEC50 (HFL-1 cells [3]),pEC50 [4],pEC50 (S1PR2),pEC50 [5],SMILES
5.37,4.52,6.00,,,,"CCOc1cc(NC(=O)NCc2nnc(-c3cn(C)nc3C(F)(F)F)c(C)c2C)cc(C(F)(F)F)n1 [Compound 66, 1-[[4,5-dimethyl-6-[1-methyl-3-(trifluoromethyl)pyrazol-4-yl]pyridazin-3-yl]methyl]-3-[2-ethoxy-6-(trifluoromethyl)-4-pyridyl]urea]"
7.76,,,5.18,7.07,≤ 4.70,"CCOc1cc(NC(=O)NCc2cc(C)c(-c3cn(C)nc3C(F)(F)F)nn2)cc(C2CC2)n1 [Compound 22, 1-(2-cyclopropyl-6-ethoxy-4-pyridyl)-3-[[5-methyl-6-[1-methyl-3-(trifluoromethyl)pyrazol-4-yl]pyridazin-3-yl]methyl]urea]"
6.38,,,≤ 4.70,6.19,≤ 4.70,"COCCOc1cc(NC(=O)NCc2cc(C)c(-c3cn(C)nc3C(F)(F)F)nn2)cc(Cl)n1 [Compound 27, 1-[2-chloro-6-(2-methoxyethoxy)-4-pyridyl]-3-[[5-methyl-6-[1-methyl-3-(trifluoromethyl)pyrazol-4-yl]pyridazin-3-yl]methyl]urea]"
6.96,,,≤ 4.70,6.11,≤ 4.70,"Cc1cc(CNC(=O)Nc2cc(OC3CCOC3)nc(C(F)(F)F)c2)nnc1-c1cn(C)nc1C(F)(F)F (stereo not drawn) [Compound 26, 1-[[5-methyl-6-[1-methyl-3-(trifluoromethyl)pyrazol-4-yl]pyridazin-3-yl]methyl]-3-[2-tetrahydrofuran-3-yloxy-6-(trifluoromethyl)-4-pyridyl]urea]"
,5.00,5.66,,4.54,,"Cc1cc(CNC(=O)Nc2cc(OCC(=O)N(C)C)nc(C(F)(F)F)c2)nnc1-c1cn(C)nc1C(F)(F)F [Compound 67, N,N-dimethyl-2-[[4-[[5-methyl-6-[1-methyl-3-(trifluoromethyl)pyrazol-4-yl]pyridazin-3-yl]methyl-carbamoyla-mino]-6-(trifluoromethyl)-2-pyridyl]oxy]acetamide]"
7.80,,,5.18,7.05,5.18,"Cc1cc(CNC(=O)Nc2cc(C#N)nc(OCC(F)F)c2)nnc1-c1cn(C)nc1C(F)(F)F [Compound 28, 1-[2-cyano-6-(2,2-difluoroethoxy)-4-pyridyl]-3-[[5-methyl-6-[1-methyl-3-(trifluoromethyl)pyrazol-4-yl]pyridazin-3-yl]methyl]urea]"
7.18,,,5.69,6.39,5.18,"Cc1cc(CNC(=O)Nc2cc(OCC(C)(F)F)nc(C(F)(F)F)c2)nnc1-c1cn(C)nc1C(F)(F)F [Compound 34, 1-[2-(2,2-difluoropropoxy)-6-(trifluoromethyl)-4-pyridyl]-3-[[5-methyl-6-[1-methyl-3-(trifluoromethyl)pyrazol-4-yl]pyridazin-3-yl]methyl]urea]"
